Measurements: patent US20040072287A1 (priority 2003, published 2004)
Several values for one entry are separate records, joined by “and”; a condition that tells them apart may be missing. Identical values can stand only once. Ends that are not written are not given here.

Assays:
[1] = biological target: human melanin-concentrating hormone receptor 1 (MCHR1) (human) (UniProt Q99705); experiment: cell-based or functional assay
GOTO cells = experiment: aequorin bioluminescence assay in GOTO cells without exogenous MCHR1 (aequorin only, or no plasmids); assay type: cell-based, human
Method: The aequorin bioluminescence assay can be used to measure the activity of G protein-coupled receptors that couple through the Ga protein subunit family consisting of Gq, G11, and Gi leading to the activation of phospholipase C, mobilization of intracellular calcium and activation of protein kinase C. Measurement of functional MCHR1 expression in GOTO cells transiently expressing aequorin was performed using a Luminoskan RT luminometer (Labsystems Inc., Gaithersburg, Md.) controlled by custom software written for a Macintosh PowerPC 6100.
GOTO cells (1.2×10^7 cells plated 18 hours before transfection in a T75 flask) were transfected with human MCHR1 plasmid DNA and aequorin cDNA using the Lipofectamine 2000 procedure (Life Technologies, Gaithersburg, Md.). Human MCHR1 plasmid DNA contained the open reading frame cDNA (SEQ. ID. NO. 2) encoding the human MCHR1 receptor inserted in the mammalian expression vector pcDNA-3 (Invitrogen, Carlsbad, Calif.). An aequorin expressing plasmid contained the cDNA for aequorin (Button, et al., 1993. Cell Calcium 14, 663-671), inserted in pcDNA-3. Following approximately 40 hours of expression the apo-aequorin in the cells was charged for 1 hour with coelenterazine (10 μM) under reducing conditions (300 μM reduced glutathione) in ECB buffer (140 mM NaCl, 20 mM KCl, 20 mM HEPES-NaOH [pH=7.4], 5 mM glucose, 1 mM MgCl2, 1 mM CaCl2, 0.1 mg/ml bovine serum albumin). The cells were harvested, washed once in ECB medium and resuspended to 500,000 cells/ml or 1,000,000cells/ml.
Lysophosphatidic acid triggers native edg receptors coupled to PLC activation present on GOTO cells. The integrated light emission was recorded over 30 seconds, in 0.5 second units. 20 μL of lysis buffer (0.1% final Triton X-100 concentration) was then injected and the integrated light emission recorded over 10 seconds, in 0.5 second units. The “fractional response” values for each well were calculated by taking the ratio of the integrated response to the initial challenge to the total integrated luminescence including the Triton X-100 lysis response.

human MCHR1 = biological target: T1, human MCHR1 (Homo sapiens, UniProt Q99705); experiment: aequorin bioluminescence assay in GOTO cells co-transfected with aequorin and human MCHR1; assay type: cell-based; settings: 1 μM; GOTO cells transfected with AEQ + MCHR1
T1 construct: expressed in transfected cells; host or cells: GOTO human neuroblastoma cells, transient co-transfection with aequorin cDNA (pcDNA-3, Lipofectamine 2000)
T1 sequence (Q99705 whole entry): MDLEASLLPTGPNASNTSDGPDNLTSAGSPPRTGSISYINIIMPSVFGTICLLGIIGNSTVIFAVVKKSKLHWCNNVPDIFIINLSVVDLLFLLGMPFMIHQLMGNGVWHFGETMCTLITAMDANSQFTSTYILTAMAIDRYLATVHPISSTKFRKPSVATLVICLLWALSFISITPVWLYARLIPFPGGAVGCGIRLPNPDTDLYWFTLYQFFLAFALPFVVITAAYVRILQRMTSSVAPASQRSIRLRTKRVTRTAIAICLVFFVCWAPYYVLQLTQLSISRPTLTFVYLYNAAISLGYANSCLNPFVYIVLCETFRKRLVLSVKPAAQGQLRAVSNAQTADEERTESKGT
Method: 20 μL of lysis buffer (0.1% final Triton X-100 concentration) was then injected and the integrated light emission recorded over 10 seconds, in 0.5 second units. The “fractional response” values for each well were calculated by taking the ratio of the integrated response to the initial challenge to the total integrated luminescence including the Triton X-100 lysis response.

[2] = 1 μM, GOTO cells, No Aeq (no aequorin and no MCHR1 plasmid)

Chain of human melanin-concentrating hormone receptor 1 (MCHR1) (human) (Q99705 whole entry): as above

Melanin-concentrating hormone (MCH) (from UniProt P20382 147-165) (peptide)
aequorin bioluminescence (cps), GOTO cells transfected with AEQ + MCHR1, MCH (1 µM) [1]: 26.4 cps and 26.6 cps

lysophosphatidic acid [LPA]
bioluminescence (GOTO cells; 1 μM, GOTO cells transfected with AEQ only (no MCHR1 plasmid)): 5.24 cps
bioluminescence (GOTO cells; [2]): 0 cps
control response, calcium mobilization via edg receptor (in words) (GOTO cells; 1 μM, GOTO cells, native edg receptor): control response evoked
bioluminescence (human MCHR1): 6.83 cps

Melanin-concentrating hormone (DFDMLRCMLGRVYRPCWQV; ends and bridges not checked; also: cyclic, ring closure not given here) [MCH]
bioluminescence (GOTO cells; [2]): 0 cps
signal over background (in words) (GOTO cells; GOTO cells, absence of exogenous MCHR1, background = buffer injection only (ECB)): no signal over background
